System: HL-60 cell line
Format: cell-based
Conditions: free ligand

| SMILES | activity of the ejected monodentate ligand (cell killing) |
| --- | --- |
| c1cnccn1 [pyrazine] | inactive |
| c1ccncc1 [pyridine] | inactive |

— article PMC8607748 (Inorganic chemistry, 2020)
